Data published in the supplement of paper PMC7600603.

Assays:
DLD1 NRF2-GOF [1] = assay: TC50 cytotoxicity; higher = less toxic; conditions: 72 h; CellTox Green cytotoxicity
In short: (§1)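 Isogenic DLD1 colorectal cancer cells, either NRF2 wild-type or CRISPR gain-of-function, were grown in DMEM with 10% FBS. They were exposed in 384-well plates to library compounds at 5 concentrations spanning a 10,000-fold range. After 72 h, cytotoxicity was read by CellTox Green on a Pherastar FS reader and normalised to vehicle wells and 100-μM positive-control wells. TC50 and drug sensitivity score (a normalised area under the curve) came from logistic dose-response fits.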

DLD1 NRF2-WT [2] = assay: TC50 cytotoxicity; higher = less toxic; conditions: 72 h; CellTox Green cytotoxicity
In short: as §1

DLD1 NRF2-GOF [3] = assay: drug sensitivity score (DSS) viability (DSS score); higher = more sensitive; extreme values may be limits of the assay; conditions: 72 h; CellTiter-Glo viability
In short: (§2)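 Library compounds were tested in 384-well plates at 5 concentrations covering a 10,000-fold span against isogenic DLD1 colorectal cancer cells, NRF2 wild-type or CRISPR gain-of-function, grown in DMEM with 10% FBS. Viability was measured at 72 h with CellTiter-Glo on a Pherastar FS reader, relative to vehicle wells and 100-μM positive-control wells. EC50 and drug sensitivity score (normalised area under the curve) were derived from logistic dose-response curves fitted with four parameters.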

DLD1 NRF2-GOF [4] = conditions: 72 h; CellTiter-Glo viability
In short: as §2

DLD1 NRF2-GOF [5] = assay: drug sensitivity score (DSS) cytotoxicity (DSS score); higher = more toxic; extreme values may be limits of the assay; conditions: 72 h; CellTox Green cytotoxicity
In short: as §1

DLD1 NRF2-WT [6] = assay: as above; conditions: 72 h; CellTox Green cytotoxicity
In short: as §1

DLD1 NRF2-WT [7] = assay: drug sensitivity score (DSS) viability (DSS score); higher = more sensitive; extreme values may be limits of the assay; conditions: 72 h; CellTiter-Glo viability
In short: as §2

DLD1 NRF2-WT [8] = conditions: 72 h; CellTiter-Glo viability
In short: as §2

Row | Compound | EC50 viability (DLD1 NRF2-GOF [4]) [µM] | EC50 viability (DLD1 NRF2-WT [8]) [µM] | TC50 cytotoxicity (DLD1 NRF2-GOF [1]) [µM] | TC50 cytotoxicity (DLD1 NRF2-WT [2]) [µM] | drug sensitivity score (DLD1 NRF2-GOF [3]) | drug sensitivity score (DLD1 NRF2-GOF [5]) | drug sensitivity score (DLD1 NRF2-WT [6]) | drug sensitivity score (DLD1 NRF2-WT [7])
1 | COc1cccc2c1C(=O)c1c(O)c3c(c(O)c1C2=O)C[C@@](O)(C(=O)CO)C[C@@H]3O[C@H]1C[C@H](N)[C@@H](O)[C@H](C)O1 [Epirubicin] | 0.153 | – | > 1 | > 1 | 8.6 | 0 | 0 | –
2 | Cn1ncnc1[C@H]1c2n[nH]c(=O)c3cc(F)cc(c23)N[C@@H]1c1ccc(F)cc1 [Talazoparib] | > 1 | – | > 1 | > 1 | 2.4 | 0 | 0 | 5.6
3 | CC(C)C[C@H](NC(=O)[C@@H](COC(C)(C)C)NC(=O)[C@H](Cc1ccc(O)cc1)NC(=O)[C@H](CO)NC(=O)[C@H](Cc1c[nH]c2ccccc12)NC(=O)[C@H](Cc1cnc[nH]1)NC(=O)[C@@H]1CCC(=O)N1)C(=O)N[C@@H](CCCNC(=N)N)C(=O)N1CCC[C@H]1C(=O)NNC(N)=O [Goserelin] | > 10 | – | > 10 | > 10 | 0 | 0 | 0 | 4.5
4 | CC(=O)Nc1ccc(C(=O)Nc2ccccc2N)cc1 [Tacedinaline] | 0.0582 | – | > 1 | > 1 | 4 | 0 | 0 | 1.9
5 | Cc1noc2c1-c1ccccc1C(c1ccc(Cl)cc1)=N[C@H]2CC(N)=O [CPI-0610] | 0.362 | – | > 10 | > 10 | 3.6 | 0 | 0 | –
6 | NCC(=O)Nc1ccc(-n2nc(C(F)(F)F)cc2-c2ccc3c(ccc4ccccc43)c2)cc1 | > 25 | – | > 25 | > 25 | 0 | 0 | 0 | 0.8
7 | Nc1cc(F)ccc1NC(=O)/C=C/c1cnn(C/C=C/c2ccccc2)c1 [RGFP966] | 1.07 | – | > 10 | > 10 | 3.7 | 0 | 0 | 3.9
8 | CC1(C)C(C(=O)Nc2ccc(S(=O)(=O)c3ccc(NC(=O)C4C(C)(C)C4(C)C)cc3)cc2)C1(C)C [BRD7116] | 0.0482 | – | – | – | 7.6 | – | – | 5.5
9 | Cc1nn(C)c(COc2ccc(N3CCN(S(=O)(=O)N(C)C)CC3)cc2)c1-c1cccc2c(CCCOc3cccc4ccccc34)c(C(=O)O)n(CCN3CCOCC3)c12 | – | > 50 | > 50 | > 50 | 2.1 | 0 | 0 | 1.9
10 | COCCNCc1ccc(-c2cc3nccc(Oc4ccc(NC(=O)C5(C(=O)Nc6ccc(F)cc6)CC5)cc4F)c3s2)nc1 [Sitravatinib] | – | 0.138 | > 2.5 | > 2.5 | 5.5 | 0 | 0 | 4.6
11 | C[C@H](Nc1ncnc2[nH]cnc12)c1cc2ccc(F)cc2nc1-c1ccccn1 [AMG319] | > 1 | – | > 1 | > 1 | 1.6 | 0 | 0 | –
12 | Cc1c(N)nc([C@H](CC(N)=O)NC[C@H](N)C(N)=O)nc1C(=O)N[C@H](C(=O)N[C@H](C)[C@@H](O)[C@H](C)C(=O)N[C@H](C(=O)NCCc1nc(-c2nc(C(=O)NCCC[S+](C)C)cs2)cs1)[C@@H](C)O)[C@@H](O[C@@H]1O[C@@H](CO)[C@@H](O)[C@H](O)[C@@H]1O[C@H]1O[C@H](CO)[C@@H](O)[C@H](OC(N)=O)[C@@H]1O)c1c[nH]cn1 [Bleomycin] | – | > 10 | > 10 | > 10 | 2.6 | 0 | 0 | 0.4
13 | CO[C@H]1C[C@@H]2CC[C@@H](C)[C@@](O)(O2)C(=O)C(=O)N2CCCC[C@H]2C(=O)O[C@H]([C@H](C)C[C@@H]2CC[C@@H](OP(C)(C)=O)[C@H](OC)C2)CC(=O)[C@H](C)/C=C(\C)[C@@H](O)[C@@H](OC)C(=O)[C@H](C)C[C@H](C)/C=C/C=C/C=C/1C [Ridaforolimus] | > 0.1 | – | – | – | 0.8 | – | – | 3.5
14 | CO[C@H]1C[C@@H]2CC[C@@H](C)[C@@](O)(O2)C(=O)C(=O)N2CCCC[C@H]2C(=O)O[C@H]([C@H](C)C[C@@H]2CC[C@@H](OCCO)[C@H](OC)C2)CC(=O)[C@H](C)/C=C(\C)[C@@H](O)[C@@H](OC)C(=O)[C@H](C)C[C@H](C)/C=C/C=C/C=C/1C [Everolimus] | – | 0.0117 | > 0.1 | > 0.1 | 2.5 | 0 | 0 | 4.7
15 | CC[C@H](C)C(=O)O[C@H]1C[C@@H](C)C=C2C=C[C@H](C)[C@H](CC[C@@H]3C[C@@H](O)CC(=O)O3)[C@H]21 [Lovastatin] | – | > 10 | > 10 | > 10 | 5.2 | 0 | 0 | 0
16 | CS(=O)(=O)c1ccc(-c2cnc(N)c(C(=O)Nc3ccccc3)n2)cc1 [VE-821] | – | > 10 | > 10 | > 10 | 0.9 | 0 | 0 | 0.2
17 | CCc1c(C(=O)C(N)=O)c2c(OCC(=O)O)cccc2n1Cc1ccccc1 [Varespladib] | – | 1.22 | > 10 | > 10 | 0.8 | 0 | 0 | 3.9

Second part, led by results:

Row | EC50 viability (DLD1 NRF2-GOF [4]) [µM] | EC50 viability (DLD1 NRF2-WT [8]) [µM] | Compound | TC50 cytotoxicity (DLD1 NRF2-GOF [1]) [µM] | TC50 cytotoxicity (DLD1 NRF2-WT [2]) [µM] | drug sensitivity score (DLD1 NRF2-GOF [3]) | drug sensitivity score (DLD1 NRF2-GOF [5]) | drug sensitivity score (DLD1 NRF2-WT [6]) | drug sensitivity score (DLD1 NRF2-WT [7])
18 | 3.55 | – | O=C(CCCCCCC(=O)Nc1ccccc1)NO [Vorinostat] | > 10 | 2.24 | 3.5 | 0 | 2.2 | –
19 | 0.0088 | – | CC/C(=C(\c1ccc(O)cc1)c1ccc(OCCN(C)C)cc1)c1ccccc1 [4-hydroxytamoxifen] | > 10 | > 10 | 10.6 | 0 | 0 | 5
20 | 0.0283 | – | CS(=O)(=O)CCNCc1ccc(-c2ccc3ncnc(Nc4ccc(OCc5cccc(F)c5)c(Cl)c4)c3c2)o1 [Lapatinib] | > 1 | > 1 | 4.4 | 0 | 0 | 2.8
21 | 1.4 | – | O=C(c1cc(Cc2n[nH]c(=O)c3ccccc23)ccc1F)N1CCN(C(=O)C2CC2)CC1 [Olaparib] | > 10 | > 10 | 2.6 | 0 | 0 | –
22 | > 10 | – | CN(C)CC#Cc1ccc(OCCCc2sc(N3CCc4cccc(C(=O)Nc5nc6ccccc6s5)c4C3)nc2C(=O)O)c(F)c1 | 0.994 | – | 0 | 3.3 | – | –
23 | 0.182 | – | CC(C)Oc1ccc(C(=O)N[C@H](CNC(=O)CN(C)C)Cc2ccc(-c3cn4cccc([C@H](C)O)c4n3)cc2)cc1Cl | > 10 | > 10 | 10.7 | 0 | 0 | –
24 | 0.571 | – | CCC(C)(C)C(=O)O[C@H]1C[C@@H](C)C=C2C=C[C@H](C)[C@H](CC[C@@H]3C[C@@H](O)CC(=O)O3)[C@H]21 [Simvastatin] | – | – | 3.8 | – | – | 0
25 | 2.83 | – | O=S(=O)(c1cccc2c(O)nccc12)N1CCCNCC1 [Hydroxyfasudil] | > 19 | > 19 | 3.9 | 0 | 0 | 2.4
26 | > 1 | – | O=C(Nc1cnn2ccc(N3CCC[C@@H]3c3cc(F)ccc3F)nc12)N1CC[C@H](O)C1 [Larotrectinib] | > 1 | > 1 | 0.5 | 0 | 0 | –
27 | 2.1 | – | O=C(c1ccc(OCCN2CCCCC2)cc1)c1c(-c2ccc(O)cc2)sc2cc(O)ccc12 [Raloxifene] | – | – | 3.2 | – | – | –
28 | > 1 | – | Cc1c(-c2c(-c3ccc(F)o3)sc3ncnc(O[C@H](Cc4ccccc4OCc4ccnn4CC(F)(F)F)C(=O)O)c23)ccc(OCCN2CCN(C)CC2)c1Cl | > 1 | > 1 | 0 | 0 | 0 | 3.6
29 | > 10 | – | Cn1cnc2c(F)c(Nc3ccc(Br)cc3Cl)c(C(=O)NOCCO)cc21 [Selumetinib] | > 10 | > 10 | 0 | 0 | 0 | 2
30 | > 10 | – | Oc1ncnc2[nH]ncc12 [Allopurinol] | > 10 | > 10 | 0 | 0 | 0 | –
31 | > 10 | – | N[C@@H]1CCCN(c2c(/C=C3\SC(=O)NC3=O)cccc2-c2ccccc2)C1 [AZD1208] | > 10 | > 10 | 7.2 | 0 | 0 | –
32 | > 1 | – | O=C(NOC[C@H](O)CO)c1ccc(F)c(F)c1Nc1ccc(I)cc1F | > 1 | > 1 | 0.1 | 0 | 0 | 2
33 | > 10 | – | O=C1CCC(N2C(=O)c3ccccc3C2=O)C(=O)N1 (stereo not drawn) [Thalidomide] | > 10 | > 10 | 0.7 | 0 | 0 | –
34 | > 10 | – | Nc1ncnc2c1c(COc1cccc(Cl)c1)nn2C1CCOCC1 | > 10 | > 10 | 0.6 | 0 | 0 | –
35 | 0.0443 | – | CC(C)Cn1cnc2c(N)nc3ccccc3c21 [Imiquimod] | > 2.5 | > 2.5 | 3.9 | 0 | 0 | –
36 | – | > 10 | O=C1Cc2cc(C(=O)NC3C[C@H]4CC[C@@H](C3)N4S(=O)(=O)CC3CCN(CCCC(F)(F)F)CC3)c(Cl)cc2N1 (stereo partly drawn) | > 10 | > 10 | 4.1 | 0 | 0 | 0
37 | – | 0.0334 | FC(F)(F)c1ccc(/C=C/c2nc(COc3ccc(CCCCn4ccnn4)cc3)co2)cc1 [Mubritinib] | > 1 | > 1 | 2.4 | 0 | 0 | 7.4
38 | 0.0051 | – | CCC1=C[C@@H]2CN(C1)Cc1c([nH]c3ccccc13)[C@@](C(=O)OC)(c1cc3c(cc1OC)N(C)[C@H]1[C@@](O)(C(=O)OC)[C@H](OC(C)=O)[C@]4(CC)C=CCN5CC[C@]31[C@@H]54)C2 [Vinorelbine] | > 10 | – | 32.2 | 7.5 | 8.1 | –
39 | 0.006 | – | C/C=C1\NC(=O)[C@H]2CSSCC/C=C/[C@H](CC(=O)N[C@H](C(C)C)C(=O)N2)OC(=O)[C@H](C(C)C)NC1=O [Romidepsin] | 0.121 | 0.105 | 23.4 | 2.9 | 9.6 | –
40 | – | 0.109 | Cn1cncc1[C@@](N)(c1ccc(Cl)cc1)c1ccc2c(c1)c(-c1cccc(Cl)c1)cc(=O)n2C [Tipifarnib] | > 10 | > 10 | 6.2 | 0 | 0 | 5.4
41 | – | > 10 | Cc1nc2cccc(N)c2c(=O)n1C1CCC(=O)NC1=O (stereo not drawn) [CC122] | > 10 | > 10 | 2.7 | 0 | 0 | 3.2
42 | 8.09 | – | Cn1nnc2c(C(N)=O)ncn2c1=O [Temozolomide] | > 100 | > 100 | 4.1 | 0 | 0 | –
